Patent US9540418B2, “Polypeptide specifically binding to rare earth nanoparticles and use thereof” (University of Science and Technology of China, priority 2012, dated 2017)

Key:
[1] = Sedimentation / suspension time-dynamics curve of UCN (UV 500 nm); format: physicochemical; conditions: standing for 120 min; UCN with or without RE-1 coating
Experimental: 3 mg of UCN was mixed with 1.5 mg of RE-1 or its analogues RE-2, RE-3, or RE-5 as well as PEG, and the binding between them was performed according to a binding method. The excess and unbound RE-1 was washed off. The resultant precipitate was resuspended in 3 mL water, sonicated for 1 min, and then placed into a UV detection cell (X72053, Alpha Laboratories Ltd, UK). Observation was made using a UV spectrophotometer (DU-640, Beckman, USA) at an absorption wavelength of 500 nm for 120 min to obtain a time-dynamics curve.

[2] = test system: LC3 type II in mice liver; assay: Western blotting of LC3 in mice livers after tail vein injection; format: in vivo; conditions: 300 μg (15 mg/kg) tail vein, 24 hr
Experimental: (§1) Western blotting is performed as follows: After an incubation of 24 h, the cells are collected and lysed with lysis buffer (purchased from Beyotime Biotechnology, China). The lysate is boiled in boiling water for 10 min, subjected to 15% SDS-PAGE, and then transferred to nylon membrane (purchased from Amersham Inc.) by a wet transfer. In the Western blotting, Anti-LC3 (Light Chain 3 Protein Antibody, purchased from Novus Inc., Catalog #: NB 100-2220) is used as primary antibody; GAPDH (purchased from Millipore Inc.) is used as internal reference; and Horseradish peroxidase (HRP) conjugated goat anti-rabbit IgG (H+L) (Goat Anti-Rabbit IgG (H+L), HRP Conjugate) (purchased from Promega Inc.) is used as secondary antibody.
Balb/c mice (purchased from SLAC Laboratory Animal (Shanghai, China), 6 weeks old, and weighed 20 g when used) were bred in a sterile housing, and then 300 μg (dosage: 15 mg/kg) UCN, UCN+PEG (containing 10 mg PEG), UCN+RE-1, UCP, UCP+RE-1, or UCP+AP-1 was injected through tail vein. An equal volume of normal saline was injected as a control. After 24 hr, the livers of the mice were removed and subjected to western blotting assay.

LC3 II in HeLa cells = assay: Western blotting of LC3 in HeLa cells; format: cell-based
Experimental: as §1
HeLa cells were inoculated into a 24-well cell culturing plate at a density of about 3-5×10^4 cells/well, and cultured overnight for further use. At first, the medium was replaced with fresh DMEM medium, and then 100 μg/mL UCN or UCN+RE-1 was added. An equal volume of PBS was used as blank. A mixture of 100 μg/mL UCN and 10 mg/mL PEG was used as negative control. 100 mM trehalose was used as positive control. Then, western blotting assay was performed.
HeLa cells were inoculated into a 24-well cell culturing plate at a density of about 3-5×10^4 cells/well, and cultured overnight for further use. At first, the medium was replaced with fresh DMEM medium, and then 100 μg/mL UCP or UCP+RE-1 was added. An equal volume of PBS was used as blank. A mixture of 100 μg/mL UCP+AP-1 and a mixture of 400 μg/mL TiO2+AP-1 were used as negative control. 400 μg/mL TiO2 was used as positive control. Then, western blotting assay was performed.

[3] = Inhibition of the binding of REOB-1 to Nd2O3 by RE-1 short peptide at various concentrations
Experimental: RE-1 short peptides at various concentrations (0 μg/mL, 1 μg/mL, 10 μg/mL, 50 μg/mL, 100 μg/mL, and 500 μg/mL) were incubated with 100 μL Nd2O3 (1 mg/mL) comprising REOB-1 phages at a titer of 10^8 at 37° C. for 2 hr. The resulting precipitate was washed 10 times. The phages binding to Nd2O3 were recovered. 5000 μg/mL of AP-1 short peptide was treated according to the same procedure as described above, as a control.

[4] = Competitive inhibition of REOB-1 phage binding to Nd2O3 by polypeptides (IC50); conditions: 100 μg Nd2O3, REOB-1 phages at a titer of 108, 2 hr incubation; read-out: IC50 (μM)* of polypeptides competitively inhibiting the binding of REOB-1 phages to Nd2O3 nanoparticles
Experimental: 100 μg Nd2O3 was mixed with the polypeptides, RE-1, AP-1, RE-2, RE-3, RE-4, RE-5, RE-6, RE-7, RE-8, RE-9, RE-10, etc., respectively. To the mixture, REOB-1 phages at a titer of 108 were added. After 2 hr of incubation, the number of REOB-1 phages binding to Nd2O3 was measured. IC50 value indicated the relative activity of various polypeptides competitively inhibiting the binding of REOB-1 phages to Nd2O3 nanoparticles. The polypeptide RE-1 and its analogues had different binding ability to Nd2O3.

HeLa cells = assay: Cytotoxicity of UCN or UCP with or without RE-1 (MTT, PI staining); format: cell-based; conditions: 10-1000 μg/mL, 24 hr, MTT and PI staining
Experimental: MTT cell vitality assay is performed as follows: The cells to which samples have been added are cultured for 24 hr, and then 0.5 mg/mL MTT solution is added and cultured for 4 hr. The MTT solution in the well is discharged, and then 200 μL DMSO is added, followed by gently shaking the plate on a shaking table for 10 min. Detection is performed using microplate reader (ELX800, purchased from BIO-TEK) at a wavelength of 570 nm.
PI staining assay is performed as follows: The cells to which samples have been added are cultured for 24 hr, and then to the culture Hoechst 33342 (10 mM, purchased from Sigma, USA, Catalog #: B2261) and PI (Propidium Iodide) (10 mM, purchased from Beyotime Biotechnology, Catalog #: ST511) are added for 10 min of staining. Then, the cells are detected and photographed under a fluorescence microscope (Olympus IX71, purchased from Olympus). The number of the cells counted by this assay was 500.
HeLa cells were inoculated into a 96-well cell culturing plate at a density of about 1-2×10^4 cells/well, and cultured overnight for further use. At first, the medium was replaced with fresh DMEM medium, and then 10 μg/mL, 100 μg/mL, 250 μg/mL, 500 μg/mL, or 1000 μg/mL of UCN or UCP coated, with or without RE-1, were added, respectively. After culturing for 24 hr, MTT cell viability assay and PI staining were performed to detect the mortality of the cells.

Sequence: ACTARSPWICG [RE-1, RE-0 with terminal amino acids A and G added]
- suspension / sedimentation of UCN in water [1]: still in suspension
- effect of RE-1 coating of UCN and UCP on LC3 type II in mice liver [2]: significantly prevented the increase of LC3 type II
- effect of RE-1 coating of UCN and UCP on LC3 II (LC3 II in HeLa cells; 100 μg/mL UCN+RE-1 or UCP+RE-1): significantly prevented the increase of LC3 II
- inhibition of cell autophagy induced by TiO2 (LC3 II in HeLa cells; 400 μg/mL TiO2): could not inhibit
- dependence of inhibition of REOB-1 binding to Nd2O3 on RE-1 concentration ([3]; 0-500 μg/mL RE-1): concentration-dependent
- inhibition of the binding of REOB-1 to Nd2O3 ([3]; RE-1 concentration greater than 10 μg/mL, REOB-1 titer 10^8, 37° C., 2 hr): nearly completely inhibited
- IC50 [4]: 3.01 ± 0.14 µM
- effect of coating with RE-1 on cytotoxicity of UCN, UCP (HeLa cells): significantly reduced cytotoxicity
